In publication PMC10606064, “2-Aminothiazole-Flavonoid Hybrid Derivatives Binding to Tau Protein and Responsible for Antitumor Activity in Glioblastoma” (International Journal of Molecular Sciences, 2023):

Assays:
[1] = molecular target: T1, Tau protein (full-length human Tau, hTau40) (Homo sapiens, UniProt P10636); assay: Tau intrinsic fluorescence quenching, modified Stern–Volmer binding parameters; conditions: 5 µM Tau, buffer B pH 6.8, mean ± SD; for Kd: read-out: Equilibrium Binding Constants to Tau, KD
T1 construct: The full-length human Tau (hTau40) was expressed in a transformed E. coli BL21 (DE3) strain; made in house; host or cells: E. coli BL21 (DE3)
T1 sequence (P10636 1-441 isoform P10636-8): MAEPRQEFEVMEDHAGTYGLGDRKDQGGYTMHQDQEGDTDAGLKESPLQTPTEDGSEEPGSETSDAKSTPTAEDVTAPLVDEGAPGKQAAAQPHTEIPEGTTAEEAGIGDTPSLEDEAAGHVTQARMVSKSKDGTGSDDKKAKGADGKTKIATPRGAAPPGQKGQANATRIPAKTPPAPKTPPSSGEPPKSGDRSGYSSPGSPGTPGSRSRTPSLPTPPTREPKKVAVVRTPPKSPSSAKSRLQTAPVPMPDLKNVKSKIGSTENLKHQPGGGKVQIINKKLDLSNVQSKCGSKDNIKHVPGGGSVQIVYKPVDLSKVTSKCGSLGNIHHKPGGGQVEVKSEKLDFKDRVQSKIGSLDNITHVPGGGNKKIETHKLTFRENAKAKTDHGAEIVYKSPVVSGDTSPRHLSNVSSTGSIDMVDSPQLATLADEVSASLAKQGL
Protocol: Fluorescence measurements were performed with a Horiba Jobin Yvon FluoroMax-3 spectrofluorometer. […] For experiments, the excitation wavelength was fixed at 275 nm, and the emission spectra were recorded between 280 nm and 500 nm at room temperature. The inner filter effects were corrected according to Lakowicz as follows:F = Fobs × exp{(Aem + Aex)/2}(2) where Fobs and F are the observed and corrected fluorescence values at the emission wavelength of 303 nm. Aex and Aem are the absorptions at the excitation and emission wavelengths, respectively, calculated with A = ε.l.C, in which ε is the extinction coefficient of Tau, l is the path length of cuvette, and C is Tau concentration.
The total fluorescence in the absence of quencher (F0) is given by:F0 = F0a + F0b(4) where 0 refers to the fluorescence intensity in the absence of quencher.
In the presence of quencher, we defined fa as the fraction of the initial fluorescence of Tau accessible to compounds:fa = F0a/(F0a + F0b)(5)
Therefore, the intensity of the accessible fraction (fa) is decreased according to the Stern–Volmer equation, whereas the buried fraction is not quenched, as given by:F = {F0a/(1 + K.[Q])} + F0b(6)
Then, subtraction of Equations (6) and (4) yields:ΔF = F0 − F = F0a × {K.[Q]/(1 + K.[Q])}(7)
At last, inversion of Equation (7) followed by division into Equation (4) yields:F0/ΔF = {1/(fa.K.[Q])} + 1/fa(8)
We applied this modified form of the Stern–Volmer equation to graphically determine the values of fa and K. For our experiments, we plotted F0/ΔF against 1/[Q], then we determined the fa value at the point of intersection with the y-axis, while the slope represented (faK)^−1.

U87 shTau cells = assay: Mitotic index by high-content imaging, U87 shTau; assay type: cell-based, human; conditions: 48 h, 5-times IC50 of compounds
Protocol: For scoring mitotic indexes, an automated high-content screening confocal microscopy approach was employed to identify cells undergoing mitosis from a large population of cells. For this, cells nuclei were stained with DAPI. Briefly, fibronectin-coated clear-glass-bottom black 96-well imaging plates were seeded with 100 µL of cell suspension (60,000 cell.mL^−1) in each well, with both U87 shCTRL and U87 ShTau cell lines. Cells were treated with 5-times IC50 of compounds for 48 h, then they were fixated inside the palates with 4% formaldehyde (in PBS pH 7.4) for 20 min at room temperature, permeabilized with PBS-Triton X-100 0.5% for 10 min at room temperature. DNA was then stained with DAPI (10 µg.mL^−1) for 5 min at room temperature and in the darkness. After being washed, cells were kept in PBS at 4 °C and imaged while in PBS. Automated confocal microscopy was carried out using an Opera Phenix (PerkinElmer) high-content screening microscope using a 20× Air/0.4 NA air objective. For each condition, 6 wells were prepared and a total of 61 fields were acquired for each well. Image analysis was performed using Harmony high-content analysis v4.8 software and PhenoLOGIC Machine Learning technology, which uses a learn-by-example approach. As a first step, nuclei were segmented and multiple parameters for these nuclei were calculated using Harmony v4.8 software building blocks. After training, PhenoLOGIC Machine Learning then selects the best parameters to detect nuclei undergoing the M phase of mitosis. From this, the mitotic index of each condition was calculated by dividing the number of cells undergoing mitosis over the total number of cells.

U87 shCTRL cells = assay: Mitochondria network analysis (citrate synthase immunofluorescence), U87 shCTRL; assay type: cell-based, human; conditions: 5 µM, 24 h (Figure 4 legend: 48 h)
Protocol: For indirect immunofluorescence of mitochondria, 10^4 cells were plated on cover glass and incubated for 24 h with compounds. Cells were then fixed in 4% formaldehyde (in PBS pH 7.4) for 20 min at RT, permeabilized with PBS-Triton X-100 0.5% for 10 min at RT. Immunostaining was carried out overnight at 4 °C with a primary anti-citrate synthase antibody (dilution 1:400 in PBS-BSA 3%; SC390693; SantaCruz Biotechnologies, Heidelberg, Germany). The following day, the cells were washed then incubated with anti-mouse secondary antibody (dilution 1:800 in PBS-BSA 3%; A-11029; Invitrogen) and TRITC-phalloidin (dilution 1:2500 in PBS-BSA 3%; P1951; Sigma-Aldrich, Saint-Quentin-Fallavier, France) for 1 h at RT in the dark. For the microtubule network, the same protocol for mitochondria labeling was carried out by replacing with primary anti-α-tubulin antibody (dilution 1:400 in PBS-BSA 1% from a 1 mg/mL solution; monoclonal antibody, clone DM1A, Sigma-Aldrich, Saint-Quentin-Fallavier, France). Next, cells were washed in PBS and cover glasses were mounted with a drop of ProLong® anti-fade solution (Invitrogen). Mitochondria and cytoskeletons were imaged using a confocal laser scanning microscope (CLSM) Leica SP5 with a Leica inverted microscope, equipped with a Plan-Apochromat 63×oil immersion objective (NA = 1.4). Each image was recorded with the CLSM’s spectral mode selecting specific domains of the emission spectrum. The Alexafluor488 and FITC fluorophores were excited at 488 nm with an argon laser, and fluorescence emission was collected between 496 nm and 535 nm. The TRITC fluorophore was excited at 543 nm with a helium–neon laser, and fluorescence was collected between 560 and 620 nm. The public-domain Fiji v1.54f software was used for image analysis.
The analyses of mitochondria and microtubule networks were performed using, respectively, the ‘Mitochondria analyzer’ plugin for Fiji v1.54f software and the method described in our earlier work. Briefly, a series of images were transferred to the software and corrected for background fluorescence intensity contribution. Next, the surface of 50 single cells was measured by considering the cell shape as the boundary of labelling of actin or α-tubulin cytoskeletons (respectively for measurement on mitochondria or microtubules). Then, the mitochondria elongation and mean branch junction per mitochondria parameters, and the surface of the microtubule network, were measured by performing systematically the Otsu method to reduce all gray-level images to binary images. […] Moreover, the ratios of microtubules on cell surfaces were calculated as percentages.

Row | Equilibrium Binding Constants to Tau, fA (Tyr accessible fraction) [1] | Kd [1] [µM] | SMILES | mitotic index (U87 shTau cells) | change in elongation index of mitochondria (U87 shCTRL cells) | reduction in the number of branch junctions per mitochondria (U87 shCTRL cells)
1 | 0.38 ± 0.01 | 6.4 ± 1.5 | Nc1nc2ccc3oc(C(=O)O)cc(=O)c3c2s1 [Compound 5] | 3 ± 0.39% | No effect | No effect
2 | 0.14 ± 0.10 | 4.7 ± 1.8 | Nc1nc2ccc3oc(-c4cccc(Oc5ccccc5)c4)cc(=O)c3c2s1 [Compound 2, 2-amino-7-(3-phenoxyphenyl)-9H-chromeno [6,5-d]thiazol-9-one] | no significant variation of mitotic indexes | −12.5% | 1.8 fold
